# Test results taken from patent publication US4921855A, “New Histidyl amino acid derivatives, and pharmaceutical composition comprising the same” (Fujisawa Pharmaceutical Co., Ltd., priority 1987, dated 1990).
# Target: T1, renin (Homo sapiens, UniProt P00797)
# T1 construct: endogenous renin and angiotensinogen in plasma; from tissue; host or cells: pooled human plasma (EDTA) from male volunteers
# T1 sequence (P00797 67-406): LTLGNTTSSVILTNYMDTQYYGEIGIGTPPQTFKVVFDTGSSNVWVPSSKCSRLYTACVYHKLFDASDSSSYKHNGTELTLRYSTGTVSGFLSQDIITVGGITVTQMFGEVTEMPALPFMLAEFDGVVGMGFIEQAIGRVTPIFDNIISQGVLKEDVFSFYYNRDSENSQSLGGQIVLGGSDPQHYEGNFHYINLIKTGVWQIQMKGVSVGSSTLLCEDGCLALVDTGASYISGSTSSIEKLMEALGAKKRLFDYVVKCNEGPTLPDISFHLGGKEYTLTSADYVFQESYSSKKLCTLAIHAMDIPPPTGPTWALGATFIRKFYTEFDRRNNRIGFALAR
# Assay: Inhibition of human plasma renin activity (angiotensin I formation, RIA)
# Assay type: biochemical
# Details: endogenous renin and angiotensinogen, pH 6.0, 37° C, 90 minutes, RIA of Ang I
# Description: Human plasma was collected from male volunteers pretreated with no drugs and used as a pool. Disodium salt of ethylenediaminetetraacetic acid (EDTA) was used as the anticoagulant. Plasma renin activity was measured as the rate of angiotensin I (Ang I) formation after incubation (37° C) of the endogenous renin and angiotensinogen in plasma at pH 6.0. The incubation mixture contained 250 μl of plasma, 5 μl of (phenylmethyl)sulfonyl fluoride, 30 μl of buffer (sodium, potassium-phosphate, pH 6.0), and 15 μl of an appropriate concentration of test compound in 50% ethyl alcohol-water vehicle. The Ang I formed after 90 minutes of incubation was measured by radioimmunoassay (RIA) which was carried out with a commercial kit, RENCTK 100 (manufactured by Commissariat A L'energic Atomique). Samples were incubated in duplicate and each tube was measured in duplicate in the RIA. Percentage inhibition of plasma renin activity was calculated by comparing the amount of Ang I produced with and without a test compound. The concentration of test compound that inhibited plasma renin activity by 50% (IC50) was determined by Probit method.
row,Compound,IC50 [nM]
1,CC(C)CC[C@H](O)[C@H](CC1CCCCC1)NC(=O)[C@H](Cc1c[nH]cn1)NC(=O)[C@H](Cc1ccccc1)OC(=O)N1CCOCC1 [(1)],19
2,CC(C)CC[C@H](O)[C@H](CC1CCCCC1)NC(=O)[C@H](Cc1c[nH]cn1)N(C)C(=O)[C@H](Cc1ccccc1)OC(=O)N1CCOCC1 [(2)],80
3,COC(=O)[C@H]1CCCN1C(=O)O[C@@H](Cc1ccccc1)C(=O)N(C)[C@@H](Cc1c[nH]cn1)C(=O)N[C@@H](CC1CCCCC1)[C@@H](O)CCC(C)C [(4)],13
4,CC(C)CC[C@H](O)[C@H](CC1CCCCC1)NC(=O)[C@H](Cc1c[nH]cn1)N(C)C(=O)[C@H](Cc1ccccc1)OC(=O)N1CCC[C@@H]1C(=O)N(C)C [(9)],30
5,CC(C)CC[C@H](O)[C@H](CC1CCCCC1)NC(=O)[C@H](Cc1c[nH]cn1)N(C)C(=O)[C@H](Cc1ccccc1)OC(=O)N1CCN(C)C(=O)C1 [(11)],19
6,CC(C)CC[C@H](O)[C@H](CC1CCCCC1)NC(=O)[C@H](Cc1c[nH]cn1)N(C)C(=O)[C@H](Cc1ccccc1)OC(=O)N1CCNC(=O)C1 [(12)],29
7,CC(=O)COC(=O)CN(C)C(=O)O[C@@H](Cc1ccccc1)C(=O)N(C)[C@@H](Cc1c[nH]cn1)C(=O)N[C@@H](CC1CCCCC1)[C@@H](O)CCC(C)C [(15)],33
8,CCOC(=O)CNC(=O)CCN(C)C(=O)O[C@@H](Cc1ccccc1)C(=O)N(C)[C@@H](Cc1c[nH]cn1)C(=O)N[C@@H](CC1CCCCC1)[C@@H](O)CCC(C)C [(16)],38
9,CC(C)CC[C@H](O)[C@H](CC1CCCCC1)NC(=O)[C@H](Cc1c[nH]cn1)N(C)C(=O)[C@H](Cc1ccccc1)OC(=O)N(C)CCC(=O)NCc1ccccn1 [(17)],33
10,CC(C)CC[C@H](O)[C@H](CC1CCCCC1)NC(=O)[C@H](Cc1c[nH]cn1)N(C)C(=O)[C@H](Cc1ccccc1)OC(=O)N(C)CCC(=O)N1CCSCC1 [(18)],30
11,CC(C)CC[C@H](O)[C@H](CC1CCCCC1)NC(=O)[C@H](Cc1c[nH]cn1)NC(=O)[C@H](Cc1ccccc1)OC(=O)N(C)CCC(=O)N1CCOCC1 [(19)],4.8
12,CC(C)CC[C@H](O)[C@H](CC1CCCCC1)NC(=O)[C@H](Cc1c[nH]cn1)N(C)C(=O)[C@H](Cc1ccccc1)OC(=O)N(C)N(C)C(=O)OCC(C)C [(20)],70
13,CC(C)CC[C@H](O)[C@H](CC1CCCCC1)NC(=O)[C@H](Cc1c[nH]cn1)N(C)C(=O)[C@H](Cc1ccccc1)OC(=O)N(C)CCC(=O)N(C)c1ccccc1 [(26)],24
14,CC(C)CC[C@H](O)[C@H](CC1CCCCC1)NC(=O)[C@H](Cc1c[nH]cn1)N(C)C(=O)[C@H](Cc1ccccc1)OC(=O)N(C)CCC(=O)N(C)CC(C)C [(27)],46
15,CC(C)CC[C@H](O)[C@H](CC1CCCCC1)NC(=O)[C@H](Cc1c[nH]cn1)N(C)C(=O)[C@H](Cc1ccccc1)OC(=O)N(C)CCCN(C)C(=O)N1CCOCC1 [(31)],13
16,CC(C)CC[C@H](O)[C@H](CC1CCCCC1)NC(=O)[C@H](Cc1c[nH]cn1)NC(=O)[C@H](Cc1ccccc1)OC(=O)N(C)N(C)C(=O)N1CCOCC1 [(36)],9.8
17,CC(C)CC[C@H](O)[C@H](CC1CCCCC1)NC(=O)[C@H](Cc1c[nH]cn1)N(C)C(=O)[C@H](Cc1ccccc1)OC(=O)N(C)CCC(=O)N(C)CCc1ccccn1 [(37)],38
18,CC(C)CC[C@H](O)[C@H](CC1CCCCC1)NC(=O)[C@H](Cc1c[nH]cn1)N(C)C(=O)[C@H](Cc1ccccc1)OC(=O)N(C)CCC(=O)NC(C)C [(39)],37

# The remaining lines, values ahead:
row,IC50 [nM],Compound
1,33,COC(=O)CN(C)C(=O)O[C@@H](Cc1ccccc1)C(=O)N(C)[C@@H](Cc1c[nH]cn1)C(=O)N[C@@H](CC1CCCCC1)[C@@H](O)CCC(C)C [(3)]
2,41,CC(C)CC[C@H](O)[C@H](CC1CCCCC1)NC(=O)[C@H](Cc1c[nH]cn1)N(C)C(=O)[C@H](Cc1ccccc1)OC(=O)N(C)CCC(=O)N(C)C [(6)]
3,40,CC(C)CC[C@H](O)[C@H](CC1CCCCC1)NC(=O)[C@H](Cc1c[nH]cn1)N(C)C(=O)[C@H](Cc1ccccc1)OC(=O)N(C)CC(=O)N(C)C [(7)]
4,46,CC(C)CC[C@H](O)[C@H](CC1CCCCC1)NC(=O)[C@H](Cc1c[nH]cn1)N(C)C(=O)[C@H](Cc1ccccc1)OC(=O)N(C)CC(=O)NCc1ccncc1 [(8)]
5,21,CC(C)CC[C@H](O)[C@H](CC1CCCCC1)NC(=O)[C@H](Cc1c[nH]cn1)N(C)C(=O)[C@H](Cc1ccccc1)OC(=O)N1CC(=O)N2CCC[C@H]2C1 [(10)]
6,34,CC(C)CC[C@H](O)[C@H](CC1CCCCC1)NC(=O)[C@H](Cc1c[nH]cn1)N(C)C(=O)[C@H](Cc1ccccc1)OC(=O)N(C)CC(=O)OCC(C)C [(13)]
7,48,CC(C)CC[C@H](O)[C@H](CC1CCCCC1)NC(=O)[C@H](Cc1c[nH]cn1)N(C)C(=O)[C@H](Cc1ccccc1)OC(=O)N(C)CC(=O)OCCc1ccccc1 [(14)]
8,43,CC(C)CC[C@H](O)[C@H](CC1CCCCC1)NC(=O)[C@H](Cc1c[nH]cn1)N(C)C(=O)[C@H](Cc1ccccc1)OC(=O)N(C)N(C)C(=O)NC(C)C [(21)]
9,63,CC(C)CC[C@H](O)[C@H](CC1CCCCC1)NC(=O)[C@H](Cc1c[nH]cn1)N(C)C(=O)[C@H](Cc1ccccc1)OC(=O)N1CCCN1C(=O)NC(C)C [(22)]
10,14,CC(C)CC[C@H](O)[C@H](CC1CCCCC1)NC(=O)[C@H](Cc1c[nH]cn1)N(C)C(=O)[C@H](Cc1ccccc1)OC(=O)N(C)CCN(C)C(=O)CC(C)C [(25)]
11,44,CC(C)CC[C@H](O)[C@H](CC1CCCCC1)NC(=O)[C@H](Cc1c[nH]cn1)N(C)C(=O)[C@H](Cc1ccccc1)OC(=O)N1CCCC(=O)C1 [(28)]
12,16,CC(C)CC[C@H](O)[C@H](CC1CCCCC1)NC(=O)[C@H](Cc1c[nH]cn1)N(C)C(=O)[C@H](Cc1ccccc1)OC(=O)N(C)CCCCC(=O)N(C)C(C)C [(29)]
13,6.4,CC(C)CC[C@H](O)[C@H](CC1CCCCC1)NC(=O)[C@H](Cc1c[nH]cn1)N(C)C(=O)[C@H](Cc1ccccc1)OC(=O)N(C)CCCCC(=O)NC(C)C [(30)]
14,15,CC(C)CC[C@H](O)[C@H](CC1CCCCC1)NC(=O)[C@H](Cc1c[nH]cn1)N(C)C(=O)[C@H](Cc1ccccc1)OC(=O)N(C)CCCC(=O)N1CCOCC1 [(32)]
15,17,CC(C)CC[C@H](O)[C@H](CC1CCCCC1)NC(=O)[C@H](Cc1c[nH]cn1)N(C)C(=O)[C@H](Cc1ccccc1)OC(=O)N(C)CCCC(=O)N(C)C(C)C [(33)]
16,7.5,CC(C)CC[C@H](O)[C@H](CC1CCCCC1)NC(=O)[C@H](Cc1c[nH]cn1)N(C)C(=O)[C@H](Cc1ccccc1)OC(=O)N(C)CCCCN(C)C(=O)N1CCOCC1 [(34)]
17,5.3,CC(C)CC[C@H](O)[C@H](CC1CCCCC1)NC(=O)[C@H](Cc1c[nH]cn1)N(C)C(=O)[C@H](Cc1ccccc1)OC(=O)N(C)CCCCC(=O)N1CCOCC1 [(35)]
18,44,CC(C)CC[C@H](O)[C@H](CC1CCCCC1)NC(=O)[C@H](Cc1c[nH]cn1)N(C)C(=O)[C@H](Cc1ccccc1)OC(=O)N(C)CCC(=O)N1CC=CCC1 [(38)]
19,57,CC(C)CC[C@H](O)[C@H](CC1CCCCC1)NC(=O)[C@H](Cc1c[nH]cn1)N(C)C(=O)[C@H](Cc1ccccc1)OC(=O)N(C)CCS(=O)(=O)C(C)C [(40)]
